This note sets out measurements from patent US20090169603A1, “Adhesive Pharmaceutical Preparation” (NITTO DENKO CORPORATION, priority 2005, published 2009).

What is called logD is the decadic logarithm of the distribution of all forms, ionised or not, between an organic phase and buffer at a given pH. Lower therefore signals lower lipophilicity. Usually logP stands for a log measure of how a compound divides between an organic and an aqueous phase. Lower therefore signals lower lipophilicity.

A short description of series [1]: Measurement of viscosity at 40° C. (type E viscometer). It is filed as physicochemical. On the procedure:
Viscosity of the drug is measured using a type E viscometer while keeping the drug at a predetermined temperature. According to the invention, when the viscosity of a drug at a predetermined temperature is from 0.05 to 100,000 mPa·s, the drug is liquid at the predetermined temperature. In addition, the “logPow” is an index which expresses hydrophilic property or hydrophobicity of the drug, and is a value measured on individual drugs in accordance with the method described in “OECD GUIDELINE FOR THE TESTING OF CHEMICALS 107, Adopted by the Council on 27 Jul. 1995, Partition Coefficient (n-octanol/water), Shake Flask Method)”, and the base of logarithm of logPow is 10.
In addition, the viscosity of a drug at 40° C. is measured using a type E viscometer while heating the drug at 40° C.
5. Measurement of Viscosity at 40° C.
Viscosity of drugs at 40° C. was measured using a type E viscometer (type E viscometer mfd. By Tokyo Keiki, VISCONIC Type ED).

The nature of series [2]: Measurement of logPow (OECD 107, n-octanol/water, shake flask method). Type of series: physicochemical. The method, then: In this case, the “drug which is liquid at room temperature or around room temperature” means a drug which is liquid at a temperature where the adhesive pharmaceutical preparation after its production is generally preserved, namely any temperature within a temperature range of from 1 to 40° C. Within such a temperature range, the drug has such a degree of fluidity that it can cause bleeding. Viscosity of the drug is measured using a type E viscometer while keeping the drug at a predetermined temperature. According to the invention, when the viscosity of a drug at a predetermined temperature is from 0.05 to 100,000 mPa·s, the drug is liquid at the predetermined temperature. In addition, the “logPow” is an index which expresses hydrophilic property or hydrophobicity of the drug, and is a value measured on individual drugs in accordance with the method described in “OECD GUIDELINE FOR THE TESTING OF CHEMICALS 107, Adopted by the Council on 27 Jul. 1995, Partition Coefficient (n-octanol/water), Shake Flask Method)”, and the base of logarithm of logPow is 10.
The “logPow” is obtained by a calculation after partitioning a drug into water layer and n-octanol layer and determining the drug concentration of each layer by an appropriate method, in accordance with the method described in the above-mentioned guideline. The quantitative determination of drugs is not particularly limited so long as it is a method in which its determinability was verified, for example, by verifying linearity of its calibration curve, but in general, an absorptiometry, a gas chromatography or a high performance liquid chromatography is used. […] In addition, when the drug is a dissociating substance, the logPow is measured while suppressing its dissociation in accordance with the guideline. That is, the logPow is measured using a buffer of appropriate pH as the water layer under a condition of a free acid or free base. When the drug is an acidic drug, a buffer having a pH value which is lower by a factor of 1 than the pKa value of the drug is used. When the drug is a basic drug, a buffer having a pH value which is higher by a factor of 1 than the pKa value of the drug is used.
In this connection, although the measurement range of logPow is generally set from −2 to 4 according to this guideline, the measurement range of logPow can be set to −2 to 5 by increasing the determination sensitivity by making use of high sensitivity analytical methods such as a high performance liquid chromatography.
LogPow was measured in accordance with the “OECD GUIDELINE FOR THE TESTING OF CHEMICALS 107, Adopted by the Council on 27th Jul. 1995, Partition Coefficient (n-Octanol/water), Shake Flask Method)”. Water layers, determination methods and results of the LogPow measurement at the time of the measurement of LogPow are shown in Table 3.

The mark [3] stands for this setting: water layer pH 10 buffer, HPLC method.

Where two headings read alike, the source gives them in different places.

As to `COc1ccc(CCN(C)CCCC(C#N)(c2cc(OC)c(OC)c(OC)c2)C(C)C)cc1OC` (stereo not shown) [Gallopamil free base, gallopamil free base], the Viscosity in series [1] is reported as 4500 mPa·s; in series [1] (listed as gallopamil) it was 4,500 mPa·s. In addition, in series [2] (setting [3]), the LogPow came out at 4.8.

The compound `CCOCCn1c(N2CCCN(C)CC2)nc2ccccc21` [Emedastine free base, emedastine free base] gave a Viscosity in series [1] of 280 mPa·s. In addition, the log distribution coefficient (logD) in series [2] (n-octanol/water, water layer pH 10 buffer, HPLC method) is 2.4. For the same compound, the LogPow entry is recorded as “base (2.4)” in series [2] (setting [3]) and 2.4 in series [2] (water layer pH 10 buffer, HPLC method, listed as emedastine free base).

`CN(C/C=C/C#CC(C)(C)C)Cc1cccc2ccccc12` [Terbinafine free base] had a Viscosity in series [1] of 280 mPa·s. In series [2] (n-octanol/water, water layer pH 9.2 buffer, HPLC method), this compound registered a pH-dependent lipophilicity (logD) above 5. Also, the LogPow result in series [2] (water layer pH 9.2 buffer, HPLC method) was “base (>5.0)”; in series [2] (water layer pH 9.2 buffer, HPLC method, listed as terbinafine) it was above 5.0.

As for `CC=CC(=O)N(CC)c1ccccc1C` (mixture of isomers) [Crotamiton, crotamiton], the Viscosity in series [1] is on record as 16 mPa·s. In addition, the logP in series [2] (n-octanol/water, water layer distilled water, HPLC method) was 3.1. The LogPow entry in series [2] (water layer distilled water, HPLC method) is “Crotamiton (3.1)”; in series [2] (water layer distilled water, HPLC method, listed as crotamiton), 3.1.

In turn, `OCC(O)CO` [Glycerol] yielded a LogPow in series [2] (water layer distilled water, titration method) of −1.1.
